According to US20240208940A1, “SMALL-MOLECULE INHIBITORS FOR BETA-CATENIN/BCELL LYMPHOMA 9 PROTEIN-PROTEIN INTERACTION” (H. LEE MOFFITT CANCER CENTER AND RESEARCH INSTITUTE, INC., priority 2021, published 2024):
Counter-ions that a name gives are not always drawn.

Molecular target: β-catenin/BCL9 PPI (Homo sapiens (Human), UniProt P35222)
Assay: AlphaScreen competitive inhibition assay of β-catenin/BCL9 PPI
Assay type: binding
Details: mean ± standard deviation (n = 3); for Ki: derived from IC50, read-out: Ki ± SD
Procedure: AlphaScreen Assays of β-Catenin and BCL9 Interaction. Experiments were performed in white opaque 384-well plates from PerkinElmer (Waltham, MA), and the samples were read on a Biotek Synergy 2 plate reader (Winooski, VT) with excitation at 680 nm and emission at 570 nm. The standard AlphaScreen protocol was used with a sensitivity setting of 200. All dilutions were made in 1× assay buffer containing 25 mM Hepes (pH 7.4), 100 mM NaCl, 0.01% Triton X-100 and 0.1% BSA to minimize nonspecific interactions. For the competitive inhibition assays of β-catenin/BCL9 PPI, the negative control (equivalent to 0% inhibition) refers to 5.0 nM biotinylated BCL9, 50 nM His6-tagged β-catenin, and 10 μg/mL donor and acceptor beads in a final volume of 25 μL assay buffer, but no tested inhibitor present. The positive control (equivalent to 100% inhibition) refers to 5.0 nM biotinylated BCL9 and 10 μg/mL donor and acceptor beads in a final volume of 25 μL assay buffer.
For the β-catenin/BCL9 assay, 5 nM biotinylated BCL9 and 50 nM His6-tagged β-catenin were incubated in assay buffer for 30 min. Different concentrations of the tested inhibitor were added and incubated in 20 μL assay buffer for another 1 h. All of the assay plates were covered and gently mixed on an orbital shaker. The donor and acceptor beads were then added to the plates to a final concentration of 10 μg/mL in 25 μL assay buffer. The mixture was incubated for 1 h before detection. The IC50 value was determined by nonlinear least-square analysis of GraphPad Prism 8.0. The Ki values were derived from the IC50 values using a method reported by Wang and coworkers.^65 The equation used is Ki=[I]50/([L]50/Kd+[P]0/Kd+1) (Where [I]50 denotes the concentration of the free inhibitor at 50% inhibition, [L]50 is the concentration of the free labeled ligand at 50% inhibition, [P]0 is the concentration of the free protein at 0% inhibition, and Kd is the dissociation constant of the protein-ligand complex). All of the experiments were performed in triplicate and carried out in the presence of 1% DMSO for small-molecule inhibitors. Each compound was assayed at least by three independent experiments. The results were expressed as mean±standard deviation.

Chain of β-catenin/BCL9 PPI (P35222 whole entry): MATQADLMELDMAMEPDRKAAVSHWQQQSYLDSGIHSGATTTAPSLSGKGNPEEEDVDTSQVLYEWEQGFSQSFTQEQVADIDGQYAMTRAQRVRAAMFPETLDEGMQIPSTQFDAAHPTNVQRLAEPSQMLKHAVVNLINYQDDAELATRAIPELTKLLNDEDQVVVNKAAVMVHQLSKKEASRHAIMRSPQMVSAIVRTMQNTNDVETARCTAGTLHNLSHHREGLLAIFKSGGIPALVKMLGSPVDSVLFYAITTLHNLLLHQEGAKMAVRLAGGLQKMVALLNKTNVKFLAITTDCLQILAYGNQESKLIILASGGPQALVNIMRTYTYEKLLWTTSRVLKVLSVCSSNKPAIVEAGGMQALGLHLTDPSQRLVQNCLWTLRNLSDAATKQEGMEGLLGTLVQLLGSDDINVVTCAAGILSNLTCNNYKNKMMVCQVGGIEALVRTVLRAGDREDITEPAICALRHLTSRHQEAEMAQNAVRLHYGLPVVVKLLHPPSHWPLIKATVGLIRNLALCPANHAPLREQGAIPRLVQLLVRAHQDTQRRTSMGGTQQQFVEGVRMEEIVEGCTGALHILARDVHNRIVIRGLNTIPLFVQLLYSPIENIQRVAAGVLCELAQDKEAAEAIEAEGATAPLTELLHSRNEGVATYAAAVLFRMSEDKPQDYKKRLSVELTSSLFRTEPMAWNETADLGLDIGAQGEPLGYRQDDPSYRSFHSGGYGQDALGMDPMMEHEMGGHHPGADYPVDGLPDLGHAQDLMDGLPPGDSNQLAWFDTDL

| Ki [µM] | IC50 [µM] | SMILES |
| --- | --- | --- |
| > 84 | > 100 | O=C(c1ccc(O[C@H]2CCNC2)c(C2CCCCC2)c1)N1CCC(Oc2cc(F)cc(N3C[C@H]4CNC[C@H]4C3)c2)CC1 [Compound 4, (S)-(3-cyclohexyl-4-(((S)-pyrrolidin-3-yl)oxy)phenyl)(4-(3-fluoro-5-((3aR,6aS)-hexahydropyrrolo[3,4-c]pyrrol-2(1H)-yl)phenoxy)piperidin-1-yl)methanone ditrifluoroacetic acid] |
| ≤ 40 | ≤ 40 | O=C(c1ccc(O[C@H]2CCNC2)c(C2CCCCC2)c1)N1CCC(Oc2cc(F)cc(N3CCC4(CCNC4)C3)c2)CC1 (stereo partly drawn) [Compound 5, (3-cyclohexyl-4-(((S)-pyrrolidin-3-yl)oxy)phenyl)(4-(3-fluoro-5-(2,7-diazaspiro[4.4]nonan-2-yl)phenoxy)piperidin-1-yl)methanone ditrifluoroacetic acid] |
| > 84 | > 100 | O=C(c1ccc(OC2CCNCC2)c(C2CCCCC2)c1)N1CCC(Oc2cc(F)cc(N3CCNCC3)c2)CC1 [Compound 6, (3-cyclohexyl-4-(piperidin-4-yloxy)phenyl)(4-(3-fluoro-5-(piperazin-1-yl)phenoxy)piperidin-1-yl)methanone ditrifluoroacetic acid] |
| ≤ 20 | ≤ 20 | O=C(c1ccc(O[C@H]2CCNC2)c(-c2ccc(C(F)(F)F)cc2)c1)N1CCC(Oc2cc(F)cc(N3CCNCC3)c2)CC1 [Compound 9, (S)-(4-(3-fluoro-5-(piperazin-1-yl)phenoxy)piperidin-1-yl)(6-(pyrrolidin-3-yloxy)-4′-(trifluoromethyl)-[1,1′-biphenyl]-3-yl)methanone dihydrochloride] |
| ≤ 20 | ≤ 20 | CC(C)(C)c1ccc(-c2cc(C(=O)N3CCC(Oc4cc(F)cc(N5CCNCC5)c4)CC3)ccc2O[C@H]2CCNC2)cc1 [Compound 10, (S)-(4′-(tert-butyl)-6-(pyrrolidin-3-yloxy)-[1,1′-biphenyl]-3-yl)(4-(3-fluoro-5-(piperazin-1-yl)phenoxy)piperidin-1-yl)methanone dihydrochloride] |
| ≤ 5 | ≤ 5 | O=C(c1ccc(O[C@H]2CCNC2)c(-c2ccc3ccsc3c2)c1)N1CCC(Oc2cc(F)cc(N3CCNCC3)c2)CC1 [Compound 11, (S)-(3-(benzo[b]thiophen-6-yl)-4-(pyrrolidin-3-yloxy)phenyl)(4-(3-fluoro-5-(piperazin-1-yl)phenoxy)piperidin-1-yl)methanone dihydrochloride] |
| ≤ 5 | ≤ 5 | O=C(c1ccc(O[C@H]2CCNC2)c(-c2ccc3ccccc3c2)c1)N1CCC(Oc2cc(F)cc(N3CCNCC3)c2)CC1 [Compound 12, (S)-(4-(3-fluoro-5-(piperazin-1-yl)phenoxy)piperidin-1-yl)(3-(naphthalen-2-yl)-4-(pyrrolidin-3-yloxy)phenyl)methanone dihydrochloride] |
| ≤ 50 | ≤ 50 | O=C(c1ccc(O[C@H]2CCNC2)c(-c2ccc3[nH]cnc3c2)c1)N1CCC(Oc2cc(F)cc(N3CCNCC3)c2)CC1 [Compound 16, (S)-(3-(1H-benzo[d]imidazol-5-yl)-4-(pyrrolidin-3-yloxy)phenyl)(4-(3-fluoro-5-(piperazin-1-yl)phenoxy)piperidin-1-yl)methanone dihydrochloride] |
| ≤ 2 | ≤ 2 | O=C(c1ccc(O[C@H]2CCNC2)c(-c2cn[nH]c2)c1)N1CCC(Oc2cc(F)cc(N3CCNCC3)c2)CC1 [Compound 17, (S)-(3-(1H-pyrazol-4-yl)-4-(pyrrolidin-3-yloxy)phenyl)(4-(3-fluoro-5-(piperazin-1-yl)phenoxy)piperidin-1-yl)methanone dihydrochloride] |
| ~84 | ~100 | O=C(c1ccc(O[C@H]2CCNC2)c(C2CCOCC2)c1)N1CCC(Oc2cc(F)cc(N3CCNCC3)c2)CC1 [Compound 20, (S)-(4-(3-fluoro-5-(piperazin-1-yl)phenoxy)piperidin-1-yl)(4-(pyrrolidin-3-yloxy)-3-(tetrahydro-2H-pyran-4-yl)phenyl)methanone dihydrochloride] |
| ≤ 50 | ≤ 50 | O=C(c1ccc(O[C@H]2CCNC2)c(C2CCN(C(=O)C3CC3)CC2)c1)N1CCC(Oc2cc(F)cc(N3CCNCC3)c2)CC1 [Compound 21, (S)-(3-(1-(cyclopropanecarbonyl)piperidin-4-yl)-4-(pyrrolidin-3-yloxy)phenyl)(4-(3-fluoro-5-(piperazin-1-yl)phenoxy)piperidin-1-yl)methanone dihydrochloride] |
| ≤ 50 | ≤ 50 | CC(C)C(=O)N1CCC(c2cc(C(=O)N3CCC(Oc4cc(F)cc(N5CCNCC5)c4)CC3)ccc2O[C@H]2CCNC2)CC1 [Compound 22, (S)-1-(4-(5-(4-(3-fluoro-5-(piperazin-1-yl)phenoxy)piperidine-1-carbonyl)-2-(pyrrolidin-3-yloxy)phenyl)piperidin-1-yl)-2-methylpropan-1-one dihydrochloride] |
| ≤ 50 | ≤ 50 | CC(O)C(=O)N1CCC(c2cc(C(=O)N3CCC(Oc4cc(F)cc(N5CCNCC5)c4)CC3)ccc2O[C@H]2CCNC2)CC1 (stereo partly drawn) [Compound 23, 1-(4-(5-(4-(3-fluoro-5-(piperazin-1-yl)phenoxy)piperidine-1-carbonyl)-2-(((S)-pyrrolidin-3-yl)oxy)phenyl)piperidin-1-yl)-2-hydroxypropan-1-one dihydrochloride] |
| ~84 | ~100 | CC(C)(C)C(=O)N1CCC(c2cc(C(=O)N3CCC(Oc4cc(F)cc(N5CCNCC5)c4)CC3)ccc2O[C@H]2CCNC2)CC1 [Compound 24, (S)-1-(4-(5-(4-(3-fluoro-5-(piperazin-1-yl)phenoxy)piperidine-1-carbonyl)-2-(pyrrolidin-3-yloxy)phenyl)piperidin-1-yl)-2,2-dimethylpropan-1-one dihydrochloride] |
| ≤ 100 | ≤ 100 | O=C(c1ccc(O[C@H]2CCNC2)c(N2CCC(C(F)(F)F)CC2)c1)N1CCC(Oc2cc(F)cc(N3CCNCC3)c2)CC1 [Compound 26, (S)-(4-(3-fluoro-5-(piperazin-1-yl)phenoxy)piperidin-1-yl)(4-(pyrrolidin-3-yloxy)-3-(4-(trifluoromethyl)piperidin-1-yl)phenyl)methanone dihydrochloride] |

| SMILES | Ki [µM] | IC50 [µM] |
| --- | --- | --- |
| O=C(c1ccc(O[C@@H]2CCNC2)c(C2CCCCC2)c1)N1CCC(Oc2cc(F)cc(N3CCNCC3)c2)CC1 [Compound 7, (R)-(3-cyclohexyl-4-(pyrrolidin-3-yloxy)phenyl)(4-(3-fluoro-5-(piperazin-1-yl)phenoxy)piperidin-1-yl)methanone dihydrochloride] | ≤ 60 | ≤ 70 |
| O=C(c1ccc(O[C@H]2CCNC2)c(-c2ccccc2)c1)N1CCC(Oc2cc(F)cc(N3CCNCC3)c2)CC1 [Compound 8, (S)-(4-(3-fluoro-5-(piperazin-1-yl)phenoxy)piperidin-1-yl)(6-(pyrrolidin-3-yloxy)-[1,1′-biphenyl]-3-yl)methanone dihydrochloride] | ≤ 50 | ≤ 50 |
| Cn1cc(-c2cc(C(=O)N3CCC(Oc4cc(F)cc(N5CCNCC5)c4)CC3)ccc2O[C@H]2CCNC2)cn1 [Compound 13, (S)-(4-(3-fluoro-5-(piperazin-1-yl)phenoxy)piperidin-1-yl)(3-(1-methyl-1H-pyrazol-4-yl)-4-(pyrrolidin-3-yloxy)phenyl)methanone dihydrochloride] | ≤ 10 | ≤ 10 |
| O=C(c1ccc(O[C@H]2CCNC2)c(-c2ccc3[nH]ncc3c2)c1)N1CCC(Oc2cc(F)cc(N3CCNCC3)c2)CC1 [Compound 14, (S)-(3-(1H-indazol-5-yl)-4-(pyrrolidin-3-yloxy)phenyl)(4-(3-fluoro-5-(piperazin-1-yl)phenoxy)piperidin-1-yl)methanone dihydrochloride] | ≤ 10 | ≤ 10 |
| O=C(c1ccc(O[C@H]2CCNC2)c(-c2ccc3cn[nH]c3c2)c1)N1CCC(Oc2cc(F)cc(N3CCNCC3)c2)CC1 [Compound 15, (S)-(3-(1H-indazol-6-yl)-4-(pyrrolidin-3-yloxy)phenyl)(4-(3-fluoro-5-(piperazin-1-yl)phenoxy)piperidin-1-yl)methanone dihydrochloride] | ≤ 20 | ≤ 20 |
| O=C(c1ccc(O[C@H]2CCNC2)c(N2CCCCC2)c1)N1CCC(Oc2cc(F)cc(N3CCNCC3)c2)CC1 [Compound 25, (S)-(4-(3-fluoro-5-(piperazin-1-yl)phenoxy)piperidin-1-yl)(3-(piperidin-1-yl)-4-(pyrrolidin-3-yloxy)phenyl)methanone dihydrochloride] | ≤ 60 | ≤ 60 |
